# Publication PMC3690538, “Structure of Rhomboid Protease in Complex with β-Lactam Inhibitors Defines the S2′ Cavity” (Structure(London, England:1993), 2013)
# Target: T1, GlpG (Escherichia coli, UniProt P09391)
# T1 construct: purified intramembrane serine protease in detergent
# T1 sequence (P09391 1-276): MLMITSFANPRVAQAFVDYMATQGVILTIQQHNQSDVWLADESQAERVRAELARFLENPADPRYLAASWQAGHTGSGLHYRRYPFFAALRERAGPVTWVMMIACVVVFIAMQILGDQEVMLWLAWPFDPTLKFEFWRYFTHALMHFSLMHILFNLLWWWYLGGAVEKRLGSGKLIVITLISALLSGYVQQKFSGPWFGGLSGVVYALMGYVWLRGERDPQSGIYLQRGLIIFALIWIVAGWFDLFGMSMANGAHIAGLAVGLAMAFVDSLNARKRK
# Assay: gel-based substrate cleavage, SDS-PAGE densitometry, four-parameter fit
# Format: biochemical
row,SMILES,IC50
1,O=C1CC(c2ccccc2)N1C(=O)OC1CCCC1 (racemic) [L62],5270 ± 80 nM
2,O=C1CC(c2ccccc2)N1C(=O)OCc1ccccc1 (centres unmarked) [L59],728 ± 60 nM
3,O=C1CC(c2ccccc2)N1C(=O)Oc1ccc(Cl)cc1 (centres unmarked) [L60],1090 ± 30 nM
4,CC(C)COC(=O)N1C(=O)CC1c1ccccc1 (racemic) [L61],11700 ± 750 nM
5,O=C1CC(c2ccccc2)N1C(=O)Oc1ccccc1 (racemic) [L29],1120 ± 50 nM
